This note sets out measurements from the Deep4Chem optical property database.

The series in a line: solvent given as SMILES.

On to `O=C(O)c1ccc2cc3cc(C(=O)O)ccc3cc2c1`, for which the absorption maximum (in C1CCOC1) is reported as 409 nm and the absorption maximum (in CN(C)C=O) was determined as 409 nm.
In turn, `CC(C)[Si](C#Cc1cc2c(=S)c3cc(C#C[Si](C(C)C)(C(C)C)C(C)C)cc4c(=S)c5cc(C#C[Si](C(C)C)(C(C)C)C(C)C)cc6c(=S)c(c1)c2n(c34)c65)(C(C)C)C(C)C` gave an absorption maximum (in ClCCl) of 577 nm.
Compound `Brc1cnc(-c2ccc(N(c3ccccc3)c3ccccc3)cc2)s1` showed an absorption maximum (in CO) of 369 nm.
For `COc1ccc2c(c1)c1ccc3cccc4c5cccc6oc(=O)c2c(c65)c1c34`, the absorption maximum (in C1CCOC1) stood at 425 nm.
For the setting “in O”, `Nc1ccc2ccc(O)cc2c1` yielded an absorption maximum of 332 nm.
Compound `CC1=CC(C)=[N+]2C1=C(c1ccc(I)cc1)c1c(C)cc(C)n1[B-]2(Oc1ccc(Cl)cc1)Oc1ccc(Cl)cc1` showed an absorption maximum (in ClC(Cl)Cl) of 506 nm.
`CC(C)(C)Nc1cc2oc3cc(NC(C)(C)C)c(F)cc3c(=O)c2cc1F` displayed an absorption maximum (in CCO) of 368 nm.
`C[SiH]1c2ccccc2-c2cc3c(cc21)-c1ccccc1[SiH]3C` (stereo not drawn): the absorption maximum (in ClCCl) stood at 324 nm.
Where the note is “in ClCCl”, `Cc1ccc(C2=[N+]3C(=Nc4c5ccccc5c(-c5ccc(C)s5)n4[B-]3(F)F)c3ccccc32)s1` returned an absorption maximum of 793 nm.
Compound `C=CC(=O)Oc1ccc2cc(C=C)c(=O)oc2c1` registered an absorption maximum (in CC#N) of 320 nm.
Turning to `CC(C)(C)c1ccc2c(c1)c1cc(C(C)(C)C)ccc1n2-c1cccc2c1Oc1c(-c3nc(-c4ccccc4)nc(-c4ccccc4)n3)cccc1C2(C)C`, the absorption maximum (in Cc1ccccc1) was 346 nm.
On to `F[B-]1(F)OC(c2cccc(Br)c2)=Cc2c3ccccc3cc[n+]21`, for which, where the note is “in ClC(Cl)Cl”, the absorption maximum stood at 399.5 nm.
`COC(=O)C(C)NC(=O)CCNc1cccc2ccccc12` (stereo not drawn) showed an absorption maximum (in CCO) of 331 nm.
`O=C(O)CCCCCn1c2ccccc2c(=O)c2cc(F)ccc21` returned an absorption maximum (in O) of 420 nm.
For `Cc1cc2cc(N3c4ccccc4Oc4ccccc43)ccc2c(=O)o1`, the absorption maximum (in Cc1ccccc1) came to 395 nm.
For `N#Cc1nnn(-c2ccnc3cc(Cl)ccc23)c1N`, the absorption maximum by setting is: (in C1CCCCC1) 326.01 nm; (in C1CCOC1) 364.05 nm; (in C1COCCO1) 365.68 nm; (in CC#N) 381.45 nm; (in CCOC(C)=O) 364.01 nm; (in CN(C)C=O) 376.7 nm. The absorption maximum worked out at 386.62 nm (in CO), 368.79 nm (in CS(C)=O) and 385 nm (in ClC(Cl)Cl).
`CCCCCC(CC)C1(C(CC)CCCCC)c2ccccc2-c2ccc(C#Cc3cc(C#Cc4ccc5c(c4)C(C(CC)CCCCC)(C(CC)CCCCC)c4ccccc4-5)c4ccc5c(C#Cc6ccc7c(c6)C(C(CC)CCCCC)(C(CC)CCCCC)c6ccccc6-7)cc(C#Cc6ccc7c(c6)C(C(CC)CCCCC)(C(CC)CCCCC)c6ccccc6-7)c6ccc3c4c65)cc21` (stereo not drawn): the absorption maximum runs as follows: (in C1CCCCC1) 486 nm; (in C1CCOC1) 492 nm; (in CCOC(C)=O) 488 nm; (in CN(C)C=O) 496 nm; (in Cc1ccccc1) 488 nm; (in ClC(Cl)Cl) 491 nm. The compound also showed an absorption maximum (in ClCCl) of 492 nm.
For `Cc1ccc(-c2ccc(C(=O)NC(C)(C)C)c3c2ccc2c4ccccc4c4ccccc4c23)cc1`, the absorption maximum (in ClCCl) is 341 nm.
Same read-out and setting: the figure for `CCOc1ccc(/C=C/c2nc(N3CCOCC3)c3c([n+]2[O-])CCCC3)cc1` is 384 nm.
On to `Cc1c(C2=[N+]3C(=Cc4c(C)c5ccccc5n4[B-]3(F)F)c3ccccc32)[nH]c2ccccc12`, for which the absorption maximum runs as follows: (in C1CCOC1) 608 nm; (in CC#N) 591 nm; (in CCCCCC) 623 nm; (in CO) 598 nm; (in Cc1ccccc1) 625 nm; (in ClCCl) 611 nm.
For the compound `C[Si]1(C)O[Si](C)(C)c2cc3c(-c4ccccc4)c4ccccc4nc3cc21`, where the note is “in ClCCl”, the absorption maximum was determined as 368 nm.
On to `CC(C)(C)c1ccc2c(c1)c1cc(C(C)(C)C)ccc1n2-c1ccc(C(=O)c2ccncc2)cc1`, for which the absorption maximum is listed as 367.32 nm (in C1CCOC1), 372.17 nm (in CCCCCC), 373.66 nm (in Cc1ccccc1) and 377.92 nm (in ClCCl).
In turn, `N#Cc1cc(-n2c3ccccc3c3ccccc32)nc(-n2c3ccccc3c3ccccc32)n1` returned an absorption maximum (in Cc1ccccc1) of 342 nm.
Turning to `CC(=O)[B-]1(C(C)=O)OC(C)=CC(c2ccc3ccccc3c2)=[O+]1`, the absorption maximum reads like this: (in CC#N) 380 nm; (in ClC(Cl)(Cl)Cl) 380 nm.
Compound `c1ccc(N(c2ccccc2)c2c3ccccc3c(N(c3ccccc3)c3ccccc3)c3ccccc23)cc1` returned an absorption maximum (in Cc1ccccc1) of 461 nm.
Compound `CCN(CC)c1ccc2cc(-c3ccc(-c4ccc5ccc6c(-c7ccc(-c8cc9ccc(N(CC)CC)cc9oc8=O)cc7)ccc7ccc4c5c76)cc3)c(=O)oc2c1` registered an absorption maximum (in ClC(Cl)Cl) of 412 nm.
`COc1cc(/C=C/c2ncc(-c3ccncc3)o2)cc(OC)c1OC` returned an absorption maximum (in ClCCl) of 352 nm.
Turning to `Cc1sc(Cl)cc1-c1nc(-c2ccccc2)[nH]c1-c1cc(Cl)sc1C`, for the setting “in CC#N”, the absorption maximum is 298 nm.
On to `Cc1cc(C)c(B(c2c(C)cc(C)cc2C)c2c(C)cc(N3c4ccccc4Oc4ccccc43)cc2C)c(C)c1`, for which the absorption maximum (in Cc1ccccc1) is reported as 399 nm.
`COc1ccc(N2c3cc(OC)ccc3N=c3cc4c(cc32)=Nc2cc(C(C)(C)C)cc(C(C)(C)C)c2O4)cc1`: the absorption maximum was found to be 539 nm (in CC#N), 562 nm (in CCCCCC) and 558 nm (in CO).
Regarding `COc1ccc(C#Cc2ccc(C#Cc3ccc(C#Cc4ccccc4C#N)cc3C#N)cc2C#N)cc1`, the absorption maximum by setting is: (in C1CCOC1) 369 nm; (in CC#N) 364 nm; (in CN(C)C=O) 369 nm; (in ClC(Cl)Cl) 371 nm; (in c1ccccc1) 371 nm.
For the setting “in CCO”, `Cc1cc(=O)oc2cc(O)ccc12` returned an absorption maximum of 323 nm.
`O=C1OC(c2ccccc2)=C/C1=C\c1ccc([N+](=O)[O-])cc1` displayed an absorption maximum (in C1COCCO1) of 416 nm.
Regarding `COc1ccc(C2=[N+]3C(=Nc4c5c6cc(OC)c(OC)c(OC)c6c6cc(C(C)(C)C)ccc6c5c(-c5ccc(OC)cc5)n4[B-]3(F)F)c3c2c2ccc(C(C)(C)C)cc2c2c(OC)c(OC)c(OC)cc32)cc1`, the absorption maximum (in Cc1ccccc1) stood at 745 nm.
Consider `CNC1=C2C=CC=[N+]2[B-](F)(F)n2cccc21`, for which the absorption maximum (in C1CCCCC1) is listed as 418.5 nm; the absorption maximum (in CC(C)=O) was 395.5 nm; the absorption maximum (in CCO) is on record as 397 nm; the absorption maximum (in CCOC(C)=O) amounted to 398.5 nm; the absorption maximum (in CO) is on record as 394.5 nm; the absorption maximum (in OCC(F)(F)F) amounted to 393 nm.
For the compound `CCN(CC)c1cc(NC(C)=O)c(/N=N/c2cc3c(=O)[nH][nH]c(=O)c3cc2[N+](=O)[O-])cc1OC`, the absorption maximum (in CC(=O)O) is 556 nm, the absorption maximum (in CN(C)C=O) turned out to be 550 nm and the absorption maximum (in CS(C)=O) was found to be 553 nm.
For `CCCCNc1nn(-c2ccc(OC)cc2)nc1C#N`, the absorption maximum (in CC#N) is given as 328 nm.
`N#Cc1ccc(/C=C2\C=C(c3ccccc3)OC2=O)cc1` yielded an absorption maximum (in C1COCCO1) of 400 nm.
For the compound `CC(C)(C)c1ccc2c(c1)sc1[n+]2[B-](F)(F)n2c(c3cccc4c(Br)ccc2c43)=N1`, the absorption maximum came out at 494 nm (in C1CCOC1); 488 nm (in CC#N); 490 nm (in CCCCCC); 498 nm (in Cc1ccccc1); 463 nm (in ClCCl).
`COc1ccc(OC)c(C2=C3C=CC(=[N+](C)C)C=C3[Si](C)(C)c3cc(N(C)C)ccc32)c1` had an absorption maximum (in O) of 651 nm.
`COc1ccc(-c2c3ccccc3c(C#Cc3ccccc3)c3cc4ccccc4cc23)cc1`: the absorption maximum (in ClCCl) came out at 523 nm.
For the compound `Cc1ccc2cc3cc(C)ncc3cc2c1`, for the setting “in CCO”, the absorption maximum worked out at 383.73 nm.
Compound `CCCCCCc1ccsc1-c1ccc2c(c1)C1=[N+]3C2=Cc2c4ccc(-c5sccc5CCCCCC)cc4c4n2[B-]3(Oc2ccccc21)Oc1ccccc1-4` (stereo not drawn) gave an absorption maximum (in C1CCOC1) of 733 nm.
On to `c1ccc2c3c(ccc2c1)-c1cc2ccccc2c2cccc-3c12`, for which the absorption maximum (in CCCCCCC) worked out at 381 nm.
Regarding `[NH3+]C(Cc1c[nH]c2ccccc12)C(=O)[O-]` (stereo not drawn), the absorption maximum (in O) was 277 nm.
In the case of `Cc1ccc(/C=C/c2ccccc2-[n+]2cc([O-])on2)cc1`, the absorption maximum turned out to be 310 nm (in C1CCCCC1) and 304 nm (in CC#N).
As to `COc1cc2c(cc1/C=C/C1=CC(=C(C#N)C#N)CC(C)(C)C1)c1ccccc1n2C`, the absorption maximum is, setting by setting: (in C1CCOC1) 475 nm; (in CC#N) 477 nm; (in CCO) 479 nm; (in CCOC(C)=O) 462 nm; (in CN(C)C=O) 484 nm; (in CS(C)=O) 489 nm. The absorption maximum (in Cc1ccccc1) was 468 nm, the absorption maximum (in ClC(Cl)Cl) amounted to 485 nm and the absorption maximum (in ClCCl) stood at 478 nm.
`COc1ccc(N(c2ccc(OC)cc2)c2cc(N(c3ccc(OC)cc3)c3ccc(OC)cc3)c3ccc4cc(C(C)(C)C)cc5ccc2c3c54)cc1` came in with an absorption maximum (in ClCCl) of 434 nm.
Take `COc1ccc2c(c1)c1cc(OC)ccc1n2-c1ccc(S(=O)(=O)c2ccc(-n3c4ccc(OC)cc4c4cc(OC)ccc43)cc2)cc1`: where the note is “in Cc1ccccc1”, the absorption maximum was 369.69 nm.
In the case of `CCOC(=O)/C=C/C1=C(c2ccc(C)cc2)C2=Nc3c(-c4ccc(C)cc4)c(Br)c(-c4ccc(C)cc4)n3[B-](F)(F)[N+]2=C1c1ccc(C)cc1`, where the note is “in ClC(Cl)Cl”, the absorption maximum came to 666 nm.
For the compound `C(=C\c1cccc2ccccc12)/c1ccc(Oc2ccc3ccccc3c2-c2c(Oc3ccc(/C=C/c4cccc5ccccc45)cc3)ccc3ccccc23)cc1`, the absorption maximum (in ClCCl) was determined as 334 nm.
Regarding `CCn1c(-c2ccc(-c3cccc4ccccc34)cc2)c(-c2ccc3ccccc3c2)c(-c2ccc3ccccc3c2)c1-c1ccc(-c2cccc3ccccc23)cc1`, under “in CCOC(C)=O”, the absorption maximum turned out to be 292 nm.
As for `Cc1ccc2c(c1)c(C#N)c(C#N)c1cc(C)ccc12`, the absorption maximum (in ClC(Cl)Cl) was 343 nm.
